Values of other authors as cited in publication PMC9164236 (ACS Organic & Inorganic Au, 2022).

Key:
[1] = tested on: breast CSCs

CC[C@@H](C(=O)[C@@H](C)[C@@H](O)[C@H](C)[C@@H]1O[C@@H]([C@@H](CC)C(=O)O)CC[C@@H]1C)[C@H]1O[C@]2(C=C[C@@H](O)[C@]3(CC[C@@](C)([C@H]4CC[C@](O)(CC)[C@H](C)O4)O3)O2)[C@H](C)C[C@@H]1C [Sal, Salinomycin]
Stability in the presence of iron(III) chloride over time: degrade
Reduction of the proportion of CSCs relative to paclitaxel [1]: > 100 fold
